Inconclusive results and toxic doses are left out. Cut-off read from the data, not from the text of the source: active = T/C of 150% or more; inactive = T/C below 125%.
Tested on: L1210 leukemia ip in BDF1 mice, survival T/C
Assay: NCI In Vivo Anticancer Drug Screen. Data for tumor model L1210 Leukemia (intraperitoneal) in B6D2F1 (BDF1) mice
Settings: endpoint: mean survival time, higher = longer survival
Summary of the method: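 In this screen, tumor-bearing mice given compound are compared to those given vehicle, and their survival values are reported as a treated-to-control quotient.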

[1] = dose: 100.0 mg/kg/injection, schedule: Q01DX001 (ip), vehicle: saline
[2] = dose: 200.0 mg/kg/injection, schedule: Q01DX001 (ip), vehicle: saline
[3] = dose: 400.0 mg/kg/injection, schedule: Q01DX001 (ip), vehicle: saline
[4] = dose: 100.0 mg/kg/injection, schedule: Q04DX003 (ip), vehicle: saline with Tween-80
[5] = dose: 200.0 mg/kg/injection, schedule: Q04DX003 (ip), vehicle: saline with Tween-80
[6] = dose: 100.0 mg/kg/injection, schedule: Q01DX001 (ip), vehicle: Klucel (hydroxypropylcellulose) (HPC)
[7] = dose: 200.0 mg/kg/injection, schedule: Q01DX001 (ip), vehicle: Klucel (hydroxypropylcellulose) (HPC)
[8] = dose: 400.0 mg/kg/injection, schedule: Q01DX001 (ip), vehicle: Klucel (hydroxypropylcellulose) (HPC)
[9] = dose: 50.0 mg/kg/injection, schedule: Q01DX001 (ip), vehicle: saline with Tween-80
[10] = dose: 100.0 mg/kg/injection, schedule: Q04DX003 (ip), vehicle: saline
[11] = dose: 200.0 mg/kg/injection, schedule: Q04DX003 (ip), vehicle: saline
[12] = dose: 400.0 mg/kg/injection, schedule: Q04DX003 (ip), vehicle: saline
[13] = dose: 50.0 mg/kg/injection, schedule: Q01DX009 (ip), vehicle: Klucel (hydroxypropylcellulose) (HPC)
[14] = dose: 100.0 mg/kg/injection, schedule: Q01DX009 (ip), vehicle: Klucel (hydroxypropylcellulose) (HPC)
[15] = dose: 100.0 mg/kg/injection, schedule: Q04DX002 (ip), vehicle: saline
[16] = dose: 200.0 mg/kg/injection, schedule: Q04DX002 (ip), vehicle: saline
[17] = dose: 400.0 mg/kg/injection, schedule: Q04DX002 (ip), vehicle: saline
[18] = dose: 100.0 mg/kg/injection, schedule: Q04DX003 (ip), vehicle: Klucel (hydroxypropylcellulose) (HPC)
[19] = dose: 200.0 mg/kg/injection, schedule: Q04DX003 (ip), vehicle: Klucel (hydroxypropylcellulose) (HPC)
[20] = dose: 400.0 mg/kg/injection, schedule: Q04DX003 (ip), vehicle: Klucel (hydroxypropylcellulose) (HPC)

Measured: T/C

COc1ccccc1CCC=O
inactive: dose: 50.0 mg/kg/injection, schedule: Q01DX001 (ip), vehicle: saline 96 % of control | [1] 96 % of control | [2] 102 % of control | [3] 102 % of control

Fc1ccc(N=C2c3ccccc3-c3ccccc32)cc1
inactive: [4] 93 % of control | [5] 93 % of control | dose: 400.0 mg/kg/injection, schedule: Q04DX003 (ip), vehicle: saline with Tween-80 95 % of control

CCC(CCC(C)C1CCC2C3CC=C4CC(OC(=O)Nc5ccccc5)CCC4(C)C3CCC12C)C(C)C (stereo not drawn)
inactive: dose: 100.0 mg/kg/injection, schedule: Q04DX002 (ip), vehicle: saline with Tween-80 87 % of control | dose: 200.0 mg/kg/injection, schedule: Q04DX002 (ip), vehicle: saline with Tween-80 87 % of control | dose: 400.0 mg/kg/injection, schedule: Q04DX002 (ip), vehicle: saline with Tween-80 94 % of control

[Co]#[Sb]
inactive: dose: 75.0 mg/kg/injection, schedule: Q04DX003 (sc), vehicle: olive oil, sesame oil, peanut oil 96 % of control | dose: 150.0 mg/kg/injection, schedule: Q04DX003 (sc), vehicle: olive oil, sesame oil, peanut oil 95 % of control | dose: 300.0 mg/kg/injection, schedule: Q04DX003 (sc), vehicle: olive oil, sesame oil, peanut oil 105 % of control

CC(C)(C)OC(=O)C(C=O)N1C(=O)c2ccccc2C1=O (stereo not drawn)
inactive: [6] 94 % of control | dose: 100.0 mg/kg/injection, schedule: Q01DX009 (ip), vehicle: saline sonified 100 % of control | [7] 92 % of control | dose: 200.0 mg/kg/injection, schedule: Q01DX009 (ip), vehicle: saline sonified 94 % of control | [8] 100 % of control | dose: 400.0 mg/kg/injection, schedule: Q01DX009 (ip), vehicle: saline sonified 98 % of control

CCCN(CCC)CCCCO
inactive: dose: 50.0 mg/kg/injection, schedule: Q01DX009 (ip), vehicle: saline with Tween-80 102 % of control | dose: 100.0 mg/kg/injection, schedule: Q01DX009 (ip), vehicle: saline with Tween-80 95 % of control | [4] 92 % of control | dose: 200.0 mg/kg/injection, schedule: Q01DX009 (ip), vehicle: saline with Tween-80 102 % of control | [5] 102 % of control

CC1C(O)CC2CC1C2(C)C (stereo not drawn)
inactive: [9] 94 % of control | dose: 100.0 mg/kg/injection, schedule: Q01DX001 (ip), vehicle: saline with Tween-80 93 % of control | dose: 200.0 mg/kg/injection, schedule: Q01DX001 (ip), vehicle: saline with Tween-80 102 % of control

CCCn1nnc2ccccc2c1=Nc1ccccc1
inactive: [10] 99 % of control | [11] 94 % of control | [12] 103 % of control

COc1ccc2ccccc2c1C1NC(=O)c2ccccc2N1 (stereo not drawn)
inactive: [13] 97 % of control | [14] 97 % of control | dose: 150.0 mg/kg/injection, schedule: Q01DX009 (ip), vehicle: Klucel (hydroxypropylcellulose) (HPC) 92 % of control

CN(C)CC(=O)CC12CC3CC(CC(C3)C1)C2
inactive: [15] 94 % of control | [16] 100 % of control | [17] 89 % of control

CC1(C)OCC(C2OC(N)C(O)C2O)O1 (stereo not drawn)
inactive: [15] 94 % of control | [16] 97 % of control | [17] 102 % of control

Cc1sc2ccc3ccccc3c2[n+]1C
inactive: dose: 50.0 mg/kg/injection, schedule: Q04DX003 (ip), vehicle: Klucel (hydroxypropylcellulose) (HPC) 105 % of control | dose: 75.0 mg/kg/injection, schedule: Q01DX001 (ip), vehicle: saline 103 % of control | [18] 109 % of control | dose: 150.0 mg/kg/injection, schedule: Q01DX001 (ip), vehicle: saline 111 % of control

Cc1c(C(C)(C)c2ccccc2)[nH]c2ccc(C(C)(C)c3ccccc3)cc12
inactive: [1] 88 % of control | [2] 86 % of control | [3] 96 % of control

CC1(N)COP(=O)(NCCCN2CCOCC2)OC1 (stereo not drawn)
inactive: [1] 96 % of control | [2] 96 % of control | [3] 96 % of control

COC(=O)CCc1c(C)[nH]c(C(=O)OC(C)(C)C)c1C
inactive: [6] 97 % of control | [18] 93 % of control | [7] 101 % of control | [19] 98 % of control | [8] 93 % of control | [20] 95 % of control

CC1C(=O)CCC2(C)CCC(C(=O)/C=C/c3ccco3)CC12 (stereo not drawn)
inactive: [6] 100 % of control | [7] 102 % of control | [8] 89 % of control

O=C1c2cc([N+](=O)[O-])ccc2-c2cc(Cl)c([N+](=O)[O-])cc21
inactive: dose: 50.0 mg/kg/injection, schedule: Q01DX001 (ip), vehicle: carboxymethylcellulose (CMC) 102 % of control | dose: 100.0 mg/kg/injection, schedule: Q01DX001 (ip), vehicle: carboxymethylcellulose (CMC) 91 % of control | dose: 200.0 mg/kg/injection, schedule: Q01DX001 (ip), vehicle: carboxymethylcellulose (CMC) 91 % of control | dose: 400.0 mg/kg/injection, schedule: Q01DX001 (ip), vehicle: carboxymethylcellulose (CMC) 93 % of control

COC1CC2c3ccccc3C1C(C)=[N+]2C (stereo not drawn)
inactive: dose: 50.0 mg/kg/injection, schedule: Q01DX009 (ip), vehicle: saline 97 % of control | dose: 100.0 mg/kg/injection, schedule: Q01DX009 (ip), vehicle: saline 101 % of control | [10] 102 % of control | dose: 200.0 mg/kg/injection, schedule: Q01DX009 (ip), vehicle: saline 100 % of control | [11] 97 % of control | [12] 102 % of control

CCN(CC)CC[N-]CCN(CC)CC.[Cl][Pt]
inactive: [1] 97 % of control

CCN=C(c1ccc(NC(=O)c2ccc(C(=O)Nc3ccc(C(=NCC)N(CC)C(=O)NC)cc3)cc2)cc1)N(CC)C(=O)NC
inactive: dose: 6.25 mg/kg/injection, schedule: Q01DX015 (ip), vehicle: methylcellulose (MC) 93 % of control | dose: 12.5 mg/kg/injection, schedule: Q01DX015 (ip), vehicle: methylcellulose (MC) 100 % of control

COc1ccc(NC(C)=O)cc1OC
inactive: [15] 95 % of control | [16] 98 % of control | [17] 92 % of control

C(/C=N/N(c1ccccc1)c1ccccc1)=N\N(c1ccccc1)c1ccccc1
inactive: [14] 97 % of control | [18] 101 % of control | dose: 200.0 mg/kg/injection, schedule: Q01DX009 (ip), vehicle: Klucel (hydroxypropylcellulose) (HPC) 92 % of control | [19] 106 % of control | dose: 400.0 mg/kg/injection, schedule: Q01DX009 (ip), vehicle: Klucel (hydroxypropylcellulose) (HPC) 95 % of control | [20] 93 % of control

CC(C)C(=O)/C=C/c1ccc(Cl)cc1
inactive: dose: 100.0 mg/kg/injection, schedule: Q04DX002 (ip), vehicle: gum acacia 95 % of control | dose: 200.0 mg/kg/injection, schedule: Q04DX002 (ip), vehicle: gum acacia 92 % of control | dose: 400.0 mg/kg/injection, schedule: Q04DX002 (ip), vehicle: gum acacia 92 % of control

COc1ccc(N)cc1NC(C)=O
inactive: [1] 102 % of control | [2] 110 % of control

CC1(C)N=C(N)N=C(N)N1c1cccc(Cc2ccccc2)c1
inactive: dose: 25.0 mg/kg/injection, schedule: Q01DX001 (ip), vehicle: saline with Tween-80 92 % of control | [9] 106 % of control

c1cc(N2CCOCC2)cc(NC2CCCCC2)n1
inactive: dose: 5.0 mg/kg/injection, schedule: Q01DX001 (ip), vehicle: saline 95 % of control | dose: 10.0 mg/kg/injection, schedule: Q01DX001 (ip), vehicle: saline 104 % of control | dose: 20.0 mg/kg/injection, schedule: Q01DX001 (ip), vehicle: saline 97 % of control | dose: 40.0 mg/kg/injection, schedule: Q01DX001 (ip), vehicle: saline 103 % of control | dose: 80.0 mg/kg/injection, schedule: Q01DX001 (ip), vehicle: saline 98 % of control

C/C(=N\N(C)C)C(=O)OC(C)(C)C
inactive: [10] 107 % of control | [11] 98 % of control | [12] 96 % of control

CCCCNC(=O)Nc1ccc(O)c(C(=O)O)c1
inactive: dose: 25.0 mg/kg/injection, schedule: Q01DX009 (ip), vehicle: Klucel (hydroxypropylcellulose) (HPC) 110 % of control | [13] 93 % of control | [14] 100 % of control
